From the supplement of paper PMC8671470
± gives the standard deviation of the averaged measurements.

Columns and labels:
HL-60 [1] = assay: cell viability (% survival relative to DMSO control); higher = less cytotoxic; settings: 72 h
Procedure, shortened: (§1)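 HL-60 cells in RPMI 1640 with 10% FBS were rescreened against the full library on 384-well plates at five tenfold concentrations, 1–10,000 nM, in duplicate. Each screen was run with DMSO or 100 nM of one of three metabolic inhibitors, for 72 h at 37 °C, 5% CO2. Viability was read by CellTiter-Glo and normalised to DMSO and 10 μM proteasome-inhibitor wells. Where given, area under the curve came from four-parameter log-logistic fits (drc, PharmacoGx).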

HL-60 [2] = assay: area under dose-response curve (viability, 1 nM-10 uM) (fraction (0-1)); higher = more sensitive; settings: 72 h
Procedure, shortened: as §1

[3] = 0.001 µM, co-treatment: AZD3965 100 nM
[4] = 0.001 µM, co-treatment: DMSO vehicle
[5] = 0.001 µM, co-treatment: GSK2194069 100 nM
[6] = 0.001 µM, co-treatment: pictilisib 100 nM
[7] = 0.01 µM, co-treatment: AZD3965 100 nM
[8] = 0.01 µM, co-treatment: DMSO vehicle
[9] = 0.01 µM, co-treatment: GSK2194069 100 nM
[10] = 0.01 µM, co-treatment: pictilisib 100 nM
[11] = 0.1 µM, co-treatment: AZD3965 100 nM
[12] = 0.1 µM, co-treatment: DMSO vehicle
[13] = 0.1 µM, co-treatment: GSK2194069 100 nM
[14] = 0.1 µM, co-treatment: pictilisib 100 nM
[15] = 1 µM, co-treatment: AZD3965 100 nM
[16] = 1 µM, co-treatment: DMSO vehicle
[17] = 1 µM, co-treatment: GSK2194069 100 nM
[18] = 1 µM, co-treatment: pictilisib 100 nM
[19] = 10 µM, co-treatment: AZD3965 100 nM
[20] = 10 µM, co-treatment: DMSO vehicle
[21] = 10 µM, co-treatment: GSK2194069 100 nM
[22] = 10 µM, co-treatment: pictilisib 100 nM
[23] = co-treatment: GSK2194069 100 nM
[24] = co-treatment: pictilisib 100 nM

| SMILES | cell viability (HL-60 [1]; [3]) [%] | cell viability (HL-60 [1]; [4]) [%] | cell viability (HL-60 [1]; [5]) [%] | cell viability (HL-60 [1]; [6]) [%] | cell viability (HL-60 [1]; [7]) [%] | cell viability (HL-60 [1]; [8]) [%] | cell viability (HL-60 [1]; [9]) [%] | cell viability (HL-60 [1]; [10]) [%] | cell viability (HL-60 [1]; [11]) [%] | cell viability (HL-60 [1]; [12]) [%] | cell viability (HL-60 [1]; [13]) [%] | cell viability (HL-60 [1]; [14]) [%] | cell viability (HL-60 [1]; [15]) [%] | cell viability (HL-60 [1]; [16]) [%] | cell viability (HL-60 [1]; [17]) [%] | cell viability (HL-60 [1]; [18]) [%] | cell viability (HL-60 [1]; [19]) [%] | cell viability (HL-60 [1]; [20]) [%] | cell viability (HL-60 [1]; [21]) [%] | cell viability (HL-60 [1]; [22]) [%] | area under dose-response curve (HL-60 [2]; co-treatment: AZD3965 100 nM) | area under dose-response curve (HL-60 [2]; co-treatment: DMSO vehicle) | area under dose-response curve (HL-60 [2]; [23]) | area under dose-response curve (HL-60 [2]; [24]) |
| --- | --- | --- | --- | --- | --- | --- | --- | --- | --- | --- | --- | --- | --- | --- | --- | --- | --- | --- | --- | --- | --- | --- | --- | --- |
| CC[C@H](C)[C@H](N)C(=O)N1CCSC1 [P32/98] | 99.83 ± 0.39 | 99.4 ± 4 | 99.6 ± 1.6 | 105 ± 1.3 | 97.4 ± 1.5 | 105 ± 3.5 | 100 ± 3.4 | 106 ± 19 | 102 ± 5.5 | 99.5 ± 1.5 | 98.8 ± 3.1 | 96.3 ± 2 | 98.4 ± 1.6 | 98.74 ± 0.79 | 98.7 ± 4.2 | 105 ± 3.8 | 95.6 ± 4 | 97.8 ± 4.4 | 96.6 ± 6.2 | 101 ± 9.5 | < 0.0301 | < 0.0301 | < 0.0301 | < 0.0301 |
| OC[C@H]1O[C@@H](n2cnc3c2N=CNC[C@H]3O)C[C@@H]1O [Pentostatin] | 97.8 ± 3.3 | 92.3 ± 12 | 86.6 ± 13 | 89.2 ± 4.1 | 105 ± 3.7 | 105 ± 7.4 | 101 ± 2.8 | 102 ± 3.8 | 100 ± 3.5 | 94.9 ± 6.3 | 98.8 ± 2.3 | 91.2 ± 1.8 | 102 ± 2.8 | 106 ± 2.7 | 101 ± 4.7 | 103 ± 7.5 | 100.2 ± 0.14 | 102 ± 2.5 | 93.96 ± 0.9 | 96.2 ± 1.8 | < 0.0301 | < 0.0301 | < 0.0301 | < 0.0301 |
| CC(C)CC(=O)N[C@H](C(=O)N[C@H](C(=O)N[C@@H](CC(C)C)[C@@H](O)CC(=O)N[C@@H](C)C(=O)N[C@@H](CC(C)C)[C@@H](O)CC(=O)O)C(C)C)C(C)C [Pepstatin A] | 104 ± 3.4 | 98.3 ± 3.8 | 100 ± 2.5 | 99.8 ± 4.1 | 107 ± 7.4 | 101 ± 1.7 | 108 ± 1.3 | 117 ± 15 | 103 ± 6 | 98.4 ± 2 | 103 ± 7.9 | 98.8 ± 10 | 102 ± 7.8 | 98.35 ± 0.18 | 103 ± 5.4 | 89.9 ± 7 | 102 ± 5.5 | 99.6 ± 6 | 99.9 ± 6.4 | 107 ± 9.8 | < 0.0301 | < 0.0301 | < 0.0301 | < 0.0301 |
| Cc1cccc(Nc2cc(Cl)nc(SCC(=O)O)n2)c1C [Pirinixic acid] | 98.81 ± 0.56 | 97.46 ± 0.45 | 70.6 ± 36 | 96.5 ± 14 | 99 ± 2 | 94.5 ± 4.6 | 89.6 ± 7.2 | 80.8 ± 28 | 96.2 ± 2.9 | 96.3 ± 2.2 | 94.6 ± 6.5 | 91.1 ± 6 | 99.2 ± 2.7 | 100.4 ± 0.83 | 99.1 ± 5.2 | 102 ± 3.8 | 98.02 ± 0.94 | 96.4 ± 0.97 | 77.3 ± 27 | 96.7 ± 5.6 | < 0.0301 | < 0.0301 | < 0.0301 | < 0.0301 |
| N[C@@H](CC(=O)N1CCn2c(nnc2C(F)(F)F)C1)Cc1cc(F)c(F)cc1F [Sitagliptin] | 103 ± 1.8 | 97.61 ± 0.86 | 97.9 ± 1.7 | 82.9 ± 14 | 108 ± 6.3 | 102 ± 1.8 | 104 ± 5.4 | 104 ± 7.1 | 103 ± 1.1 | 100 ± 1.7 | 99.4 ± 5.9 | 99.5 ± 6.1 | 103 ± 1.9 | 101 ± 1.9 | 107 ± 4.7 | 114 ± 13 | 109 ± 19 | 101 ± 2 | 97.9 ± 3.2 | 94.2 ± 17 | < 0.0301 | < 0.0301 | < 0.0301 | < 0.0301 |
| CCCc1nc(C)c2c(=O)nc(-c3cc(S(=O)(=O)N4CCN(CC)CC4)ccc3OCC)[nH]n12 [Vardenafil] | 98.1 ± 1.4 | 98.07 ± 0.13 | 97.9 ± 1.4 | 101 ± 3.4 | 100 ± 4.8 | 99.7 ± 5 | 98.3 ± 5.9 | 104 ± 1.9 | 96.8 ± 7.3 | 84.9 ± 20 | 88.3 ± 16 | 93 ± 2.5 | 108 ± 5.8 | 98.5 ± 4.3 | 108.1 ± 0.52 | 104 ± 7.8 | 100 ± 2.6 | 103 ± 3.1 | 92.4 ± 10 | 107 ± 5.3 |  |  |  |  |
| CCc1c(C(=O)C(N)=O)c2c(OCC(=O)O)cccc2n1Cc1ccccc1 [Varespladib] | 97.7 ± 5.8 | 101 ± 3.8 | 92.6 ± 6.1 | 103 ± 4.1 | 99.9 ± 7 | 95.7 ± 2.9 | 93.5 ± 2.6 | 99.9 ± 18 | 102 ± 5.3 | 103 ± 8.2 | 97 ± 3.3 | 107 ± 3.4 | 100.2 ± 0.46 | 97.5 ± 1.5 | 92.9 ± 2.3 | 97.7 ± 1.4 | 97 ± 6.2 | 98.1 ± 5.8 | 89.1 ± 4.8 | 97.2 ± 11 |  |  |  |  |
| N#Cc1ccc(N(Cc2ccc(Br)cc2)n2cnnc2)cc1 [YM511] | 83.2 ± 8.3 | 96.8 ± 4 | 96.8 ± 2 | 88.1 ± 9.3 | 106 ± 6.3 | 102 ± 4.8 | 81 ± 33 | 79.9 ± 18 | 102 ± 2 | 101.39 ± 0.056 | 105 ± 5.9 | 99.6 ± 1.7 | 95.3 ± 5.1 | 101 ± 2.3 | 97.49 ± 0.82 | 92.9 ± 4.6 | 96.88 ± 0.89 | 104 ± 4.4 | 102 ± 2.3 | 95.3 ± 5.3 |  |  |  |  |
| N#C/C(=C\c1ccc(O)cc1)C(=O)O [alpha-cyano-4-hydroxycinnamic acid] | 99.4 ± 2.6 | 98.9 ± 6.6 | 101 ± 11 | 90.3 ± 2.3 | 101 ± 2 | 98.8 ± 2.9 | 103 ± 2.3 | 99.16 ± 0.25 | 102.35 ± 0.098 | 95.79 ± 0.61 | 98.6 ± 4.6 | 95.5 ± 3 | 101 ± 4.6 | 99.8 ± 2.5 | 97.5 ± 6.4 | 94.7 ± 5.4 | 101 ± 1.7 | 98.6 ± 2 | 95.5 ± 2 | 91.3 ± 5.2 | < 0.0301 | < 0.0301 | < 0.0301 | < 0.0301 |
